Measurements from patent publication US6448374B1, “Production of phosphopeptides from casein” (The University of Melbourne, priority 1991, dated 2002).
Where no end group is shown, it is not given here. [ ]: non-standard residue; d: D form. pS = N[C@@H](COP(=O)(O)O)C(=O)O

Tests used:
[1] = phosphate binding of the phosphopeptide; type: physicochemical; details: calcium phosphate ACPP
Description: (§1) The calcium ACPP can be converted to calcium phosphate ACPP by addition of CaCl2 and Na2HPO4 where the Ca/P final ratio is 1.67. The peptide αs1(59-79) can bind 21 Ca and 13 PO4. The filtrate of the above process is suited for the purification of other bioactive casein peptides by size and charge-based separation technologies and can be used as microbiological growth media, as dietary supplements after debittering or as a nitrogen fertilizer.

[2] = calcium binding of the phosphopeptide; type: physicochemical; details: calcium phosphate ACPP
Description: as §1

[3] = phosphopeptides released by tryptic digestion of casein; from Australian Patent No. 593365; cited from earlier work

| Substance | PO4 bound per peptide [1] | Ca bound per peptide [2] | anticariogenic (tooth-decay-inhibiting) activity [3] |
| --- | --- | --- | --- |
| αs1(59-79): casein tryptic phosphopeptide containing -Ser(P)-Ser(P)-Ser(P)-Glu-Glu- (QMEAESI[pS][pS][pS]EEIVPNSVEQK; ends and bridges not checked; also: other serines' phosphorylation not given here) | 13 PO4 | 21 Ca | anticariogenic (tooth-decay-inhibiting) activity |
| αs2(2-21): casein tryptic phosphopeptide containing -Ser(P)-Ser(P)-Ser(P)-Glu-Glu- (NTMEHV[pS][pS][pS]EESIISQETYK; ends and bridges not checked; also: other serines' phosphorylation not given here) | – | – | anticariogenic (tooth-decay-inhibiting) activity |
| αs2(46-70): casein tryptic phosphopeptide containing -Ser(P)-Ser(P)-Ser(P)-Glu-Glu- (NANEEEYSIG[pS][pS][pS]EESAEVATEEVK; ends and bridges not checked; also: other serines' phosphorylation not given here) | – | – | anticariogenic (tooth-decay-inhibiting) activity |
| β(2-25): casein tryptic phosphopeptide containing -Ser(P)-Ser(P)-Ser(P)-Glu-Glu- (ELEELNVPGEIVESL[pS][pS][pS]EESITR; ends and bridges not checked; also: other serines' phosphorylation not given here) | – | – | anticariogenic (tooth-decay-inhibiting) activity |
